Experimental data as given in paper PMC11740726 (PNAS Nexus, 2025).
Where “and” joins values, the source holds several entries; their conditions need not be identical. Identical values can stand only once. Like-named read-outs stand apart in the source and are kept apart here.

Assays:
SARS-CoV-2^E166V-P14 [1] = type: cell-based; details: read-out: EC50, SARS-CoV-2^E166V-P14, HeLa^hACE2-TMPRSS2
SARS-CoV-2^BQ.1.1 = assay: microbe, parasite or virus in culture; type: cell-based; details: Severe acute respiratory syndrome coronavirus 2, read-out: Against SARS-CoV-2 variants EC50, Omicron BQ.1.1
[2] = system: SARS-CoV-2 Omicron XBB.1.5; assay: microbe, parasite or virus in culture; type: cell-based; details: Severe acute respiratory syndrome coronavirus 2, read-out: Against SARS-CoV-2 variants EC50, Omicron XBB.1.5
SARS-CoV-2 Omicron XBB = assay: microbe, parasite or virus in culture; type: cell-based; details: Severe acute respiratory syndrome coronavirus 2, read-out: Against SARS-CoV-2 variants EC50, Omicron XBB
rgSARS-CoV-2^E166V = type: cell-based, SARS-CoV-2; details: read-out: EC50, rgSARS-CoV-2^E166V, VeroE6 +2μM CP-100356
[3] = system: six various Omicron variants (BA.5, BA.2.75, BQ.1.1, XBB, XBB.1.5, and EG.5.1); assay: microbe, parasite or virus in culture; type: cell-based, SARS-CoV-2; details: Severe acute respiratory syndrome coronavirus 2, read-out: EC50 values ranging over all six Omicron variants
[4] = system: SARS-CoV-2 Omicron BA.2.75; assay: microbe, parasite or virus in culture; type: cell-based; details: Severe acute respiratory syndrome coronavirus 2, read-out: Against SARS-CoV-2 variants EC50, Omicron BA.2.75
rgSARS-CoV-2^WT = assay: microbe, parasite or virus in culture; type: cell-based; details: Severe acute respiratory syndrome coronavirus 2, Vero C1008, read-out: EC50, rgSARS-CoV-2^WT, VeroE6 +2μM CP-100356
[5] = system: SARS-CoV-2 Omicron EG.5.1; assay: microbe, parasite or virus in culture; type: cell-based; details: Severe acute respiratory syndrome coronavirus 2, read-out: Against SARS-CoV-2 variants EC50, Omicron EG.5.1
SARS-CoV-2 Omicron BA.5 = assay: microbe, parasite or virus in culture; type: cell-based; details: Severe acute respiratory syndrome coronavirus 2, read-out: Against SARS-CoV-2 variants EC50, Omicron BA.5
SARS-CoV-2^E166V-P14 [6] = type: cell-based; details: read-out: EC50, SARS-CoV-2^E166V-P14, VeroE6 +2μM CP-100356

| Compound | EC50 (SARS-CoV-2^E166V-P14 [1]) | EC50 (SARS-CoV-2^BQ.1.1) [nM] | EC50 [2] [nM] | EC50 (SARS-CoV-2 Omicron XBB) [nM] | EC50 (rgSARS-CoV-2^E166V) [nM] | EC50 [3] [nM] | EC50 [4] [nM] | EC50 (rgSARS-CoV-2^WT) [nM] | EC50 [5] [nM] | EC50 (SARS-CoV-2 Omicron BA.5) [nM] | EC50 (SARS-CoV-2^E166V-P14 [6]) [nM] |
| --- | --- | --- | --- | --- | --- | --- | --- | --- | --- | --- | --- |
| CC(C)(C)[C@H](NC(=O)C(F)(F)F)C(=O)N1C[C@H]2[C@@H]([C@H]1C(=O)N[C@@H](C[C@@H]1CCNC1=O)C(=O)c1nc3cc(F)ccc3s1)C2(C)C [TKB272] | 51.3 nM and 51 nM | 3 ± 1 | 5 ± 2 | 3 ± 1 | 22 | 3 to 8 | 6 ± 3 | 3 | 7 ± 1 | 8 ± 1 |  |
| CC(C)C(=O)OC[C@H]1O[C@@H](n2ccc(NO)nc2=O)[C@H](O)[C@@H]1O [molnupiravir, reference compound] |  |  |  |  |  |  |  |  |  |  | 750 |
| CC(C)(C)[C@H](NC(=O)C(F)(F)F)C(=O)N1C[C@H]2[C@@H]([C@H]1C(=O)N[C@@H](C[C@@H]1CCNC1=O)C(=O)c1nc3c(F)cccc3s1)C2(C)C [TKB245] |  |  | 35 ± 18 | 6 ± 3 |  | 6 to 38 | 27 ± 3 |  | 9 ± 1 | 23 ± 9 |  |
| Cn1cnc(Cn2c(=O)[nH]/c(=N\c3cc4cn(C)nc4cc3Cl)n(Cc3cc(F)c(F)cc3F)c2=O)n1 [Ensitrelvir, reference compound] |  | 70 ± 20 | 220 ± 90 | 60 ± 20 |  | 60 to 220 | 140 ± 60 |  | 210 ± 90 | 200 ± 40 | 540 |
| CC(C)(C)[C@H](NC(=O)C(F)(F)F)C(=O)N1C[C@H]2[C@@H]([C@H]1C(=O)N[C@H](C#N)C[C@@H]1CCNC1=O)C2(C)C [Nirmatrelvir, reference compound] | 1420 nM | 50 ± 20 | 210 ± 280 |  | 1300 | 20 to 750 | 300 ± 220 | 26 ± 5 | 130 ± 20 | 750 ± 220 |  |
